The text below walks through data of paper PMC4977465, “Repositioning organohalogen drugs: a case study for identification of potent B-Raf V600E inhibitors via docking and bioassay” (Scientific Reports, 2016).

Where two headings read alike, the source gives them in different places.

Common to all, as to format: biochemical
One test deals with B-Raf V600E (Homo sapiens, UniProt P15056, V600E). The test is described as follows: ELISA-based assay of inhibitory activity against B-Raf V600E (MEK to p-MEK). As to conditions: for inhibition at 10 µM: read-out: Inhibition Rate (at 10 μM).
Another test deals with wild type B-Raf (Homo sapiens, UniProt P15056). The test is described as follows: ELISA-based assay, wild type B-Raf.
A further test concerns the target T1, B-Raf T508A (Homo sapiens, UniProt P15056, T508A).
T1 construct: B-RAFT508A and B-RAFS602A, residues 433–726; made in house; host or cells: Sf9 insect cells (pFastBac Dual)
The test is described as follows: ELISA-based assay, single point mutant B-Raf T508A. An excerpt:
(§1) The mutant sequence of human BRAF kinase domain (B-RAFT508A and B-RAFS602A, residues 433–726) was inserted into the plasmid of pFastBacTM Dual. Then the recombinant plasmid was transported into the sf9 cells. Mutant protein was expressed and purified respectively.

In the next test the target is T2, B-Raf S602A (Homo sapiens, UniProt P15056, S602A).
T2 construct: B-RAFT508A and B-RAFS602A, residues 433–726; made in house; host or cells: Sf9 insect cells (pFastBac Dual)
The test is described as follows: ELISA-based assay, single point mutant B-Raf S602A.
From the text: as §1
(In general: An ELISA detects its analyte on a solid surface through an enzyme-linked reagent.)

B-Raf V600E, sequence (P15056 whole entry V600E): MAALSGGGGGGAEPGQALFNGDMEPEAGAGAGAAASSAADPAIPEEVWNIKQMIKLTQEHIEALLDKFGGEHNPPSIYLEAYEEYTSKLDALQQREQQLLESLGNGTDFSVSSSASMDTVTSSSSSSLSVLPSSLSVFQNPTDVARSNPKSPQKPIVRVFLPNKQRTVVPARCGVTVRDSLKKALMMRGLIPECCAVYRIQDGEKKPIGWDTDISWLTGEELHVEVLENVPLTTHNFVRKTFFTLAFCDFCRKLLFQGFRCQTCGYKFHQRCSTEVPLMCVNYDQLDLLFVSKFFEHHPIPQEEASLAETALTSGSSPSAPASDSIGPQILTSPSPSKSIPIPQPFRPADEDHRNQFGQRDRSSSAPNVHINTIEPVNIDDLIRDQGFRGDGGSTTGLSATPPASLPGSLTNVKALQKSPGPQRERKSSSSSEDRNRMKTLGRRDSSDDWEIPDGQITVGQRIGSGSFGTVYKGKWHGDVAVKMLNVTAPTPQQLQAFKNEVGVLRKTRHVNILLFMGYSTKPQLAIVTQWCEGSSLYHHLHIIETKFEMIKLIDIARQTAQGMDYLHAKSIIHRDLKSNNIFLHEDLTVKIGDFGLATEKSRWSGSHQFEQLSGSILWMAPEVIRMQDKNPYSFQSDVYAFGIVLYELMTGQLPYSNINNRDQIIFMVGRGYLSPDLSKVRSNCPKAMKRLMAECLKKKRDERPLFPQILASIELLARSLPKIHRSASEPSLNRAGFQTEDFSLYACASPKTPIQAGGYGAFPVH
T1 sequence (P15056 433-726 T508A): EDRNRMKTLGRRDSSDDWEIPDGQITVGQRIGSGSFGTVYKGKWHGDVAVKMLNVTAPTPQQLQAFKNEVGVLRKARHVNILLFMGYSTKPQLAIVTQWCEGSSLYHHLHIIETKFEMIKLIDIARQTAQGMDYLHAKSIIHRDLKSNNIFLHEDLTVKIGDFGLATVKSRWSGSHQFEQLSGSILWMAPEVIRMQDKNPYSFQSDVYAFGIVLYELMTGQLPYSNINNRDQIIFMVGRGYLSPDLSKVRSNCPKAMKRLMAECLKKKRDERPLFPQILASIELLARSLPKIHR
T2 sequence (P15056 433-726 S602A): as the sequence (P15056 433-726 T508A) above, with A76T, S170A counted along it
wild type B-Raf, sequence (P15056 whole entry): as the sequence (P15056 whole entry V600E) above, with E600V counted along it

Turning to `CCCS(=O)(=O)Nc1ccc(F)c(C(=O)c2c[nH]c3ncc(Cl)cc23)c1F` [PLX4720], the inhibition – broadly, the share of the control response that was lost under treatment – at 10 µM on B-Raf V600E (B-Raf V600E, 10 μM) is 82.5%.
On to `Cc1cc(C(C#N)c2ccc(Cl)cc2)c(Cl)cc1NC(=O)c1cc(I)cc(I)c1O` (centres unmarked) [closantel], for which the concentration for half-maximal inhibition (IC50) (in general, the point on the concentration scale where inhibition reaches its midpoint) turned out to be 1.9 µM at B-Raf V600E (B-Raf V600E, read-out: IC50 B-RAF V600E); 1.89 µM on wild type B-Raf (wild type B-Raf, read-out: IC50 B-RAF WT); 5.97 µM on B-Raf T508A (B-Raf T508A mutant, read-out: IC50 B-RAF T508A); 6.35 µM on B-Raf S602A (B-Raf S602A mutant, read-out: IC50 B-RAF S602A). Further, the inhibition at 10 µM at B-Raf V600E was 83.9%.
For the compound `CC1(C)C(C=C(Cl)Cl)C1C(=O)OC(C#N)c1cccc(Oc2ccccc2)c1` (centres unmarked) [cypermethrin], on B-Raf V600E (ELISA-based assay, 10 μM), the “activity against B-Raf V600E (in words)” value was “inactive”. The inhibition at 10 µM on B-Raf V600E came out at 17.6%.
Turning to `O=C(Nc1ccc(Oc2ccc(Cl)cc2)c(Cl)c1)c1cc(I)cc(I)c1O` [rafoxanide], the IC50 at B-Raf V600E was found to be 0.07 µM; against wild type B-Raf, 1.94 µM; against B-Raf T508A, 15.7 µM; against B-Raf S602A, 11.4 µM. Besides, at B-Raf V600E, the inhibition at 10 µM was 73.2%.
Take `CCCS(=O)(=O)Nc1ccc(F)c(C(=O)c2c[nH]c3ncc(-c4ccc(Cl)cc4)cc23)c1F` [vemurafenib]: on B-Raf V600E (B-Raf V600E, 10 μM), the inhibition at 10 µM was 82.9%.
